Results as given in patent US20200277571A1, “METHOD FOR AMPLIFYING CONE PHOTORECEPTORS OR ROD PHOTORECEPTORS USING DORSALIZATION SIGNAL TRANSMITTER OR VENTRALIZATION SIGNAL TRANSMITTER” (RIKEN, priority 2017, published 2020).

System: S-opsin, M-opsin, L-opsin
Test: Quantitative PCR of S-opsin, M-opsin, L-opsin after maturation culture in serum-free medium
Assay type: cell-based, human
Settings: T3 added (0-8 nM) in serum-free DMEM/F12 after about day 190, not less than 30 days
Procedure: By a method similar to the methods described in Example 1 and Example 3, a cell aggregate containing a retinal tissue in a differentiation stage matured to the level that Muller cell was observed was prepared and culture was performed, in the serum-containing medium used, up to about day 190 to give a retinal tissue in a differentiation stage matured to the level that Muller cell was observed. Thereafter, by a method similar to the methods described in Example 11 and 12, further maturation was performed. That is, 0-1.35 nM BMP4 and 0-8 nM T3 were added to a medium obtained by adding 1% N2 supplement and 100 μM taurine but not adding 10% fetal calf serum to DMEM/F12 medium containing glutamic acid as a component, and culture was performed for not less than 30 days from the start of culture for further maturation. A cell aggregate containing a retinal tissue was recovered, quantitatively PCR was performed according to a conventional method, and the expression levels of S-opsin, M-opsin, L-opsin were confirmed. As a result, irrespective of the presence or absence of BMP4, the expression of S-opsin was promoted when T3 was absent.

SMILES: N[C@@H](Cc1cc(I)c(Oc2ccc(O)c(I)c2)c(I)c1)C(=O)O [T3, triodo-I-thyronine]
- expression of S-opsin: suppressed
